The subject of test [1] is cyclin D1 Thr286 phosphorylation. Nature of the test: Thr286 phosphorylation of transfected ΔD cyclin D1 after BIO, HCT 116 cells. The test is classed as cell-based, human. The note with it: 5 μM BIO 24 hours after transfection. The text has this:
(§1) FIG. 9 illustrates that MAPK directly binds to cyclin D1 through the MAPK docking site (D-domain) within cyclin D1 and phosphorylates it specifically at Thr286. Panel A: p42 ERK2-associated GST-cyclin D1 (CD1) in vitro kinase assays (upper panels). Purified ERK2 phosphorylates cyclin D1 in vitro. Immuno-blotting (IB) analyses stained with a GST antibody (lower panels) were provided as a reference to show loading conditions of various forms of GST-CD1 fusion proteins. (A) GST alone (lane 1), GST-human (h) CD1 amino acids (A.A.) from 165 to 295 (165-295, lane 2), GST-human (h) or mouse (m) CD1 A.A. from 255 to 295 (255-295, lane 3 and 4) were used. Panel B: Western blot analysis following transfection of various forms of HA-tagged cyclin D1 expression vectors in both NIH 3T3 mouse fibroblast (left) and HCT 116 colon cancer (right) cells. In lane 5 and 10, Cells were treated with 5 μM of a highly specific GSK3β inhibitor BIO for further 24 hours following transfcetion of the ΔD CD1 mutant.
(§2) FIG. 11 illustrates that ERK/MAPK is identified as the major kinase that is responsible for the stability of cyclin D1 protein. […] Cyclin D1 was immunoprecipitated and then analyzed with SDS-PAGE. […] Levels of metabolically labeled-cyclin D1 were estimated by quantitative scanning using the Quantity One (Bio-Rad) software and blotted on the graph to determine the half-life of cyclin D1. […]

Test [2] shares this test system. Nature of the test: Thr286 phosphorylation of transfected ΔD cyclin D1 after BIO, NIH 3T3 cells. It counts as cell-based, mouse. The note with it: 5 μM BIO 24 hours after transfection.
Excerpt: as §1, §2

Test [3] relates to cyclin D1. Nature of the test: Immunofluorescence, subcellular localization of cyclin D1 in HCT 116 cells. It counts as cell-based, human. To be noted: 5 μM BIO 24 hours, BrdU pulse. The method, then: Panels A-C: Immunofluorescence analysis. Nuclei were visualized with Hoechst dye. […] Panel A: Subcellular localization of cyclin D1. […] Panel B: Subcellular localization of the E3 ligase. […] Panel D: Immunoprecipitated-immunoblotting analysis. Panel E: Cell cycle distributions.
Immunofluorescence Analysis. Cultured cells on multiwell chamber slides (Nalge Nunc) were fixed with 4% paraformaldehyde in PBS and permeabilized in PBS containing 0.1% Triton X-100. Primary antibodies were diluted 1:100 in PBS containing 5% normal goat serum and applied for 2 hours. Proteins were detected either with mouse monoclonal antibodies or rabbit polyclonal antibodies followed by fluorescent substrate conjugated anti-mouse or anti-rabbit secondary antibody (Molecular Probes). For example, Cyclin D1 was detected either with mouse monoclonal cyclin D1 antibody (A-12, Santa Cruz) followed by fluorescent substrate conjugated anti-mouse or anti-rabbit secondary antibody (Molecular Probes). Nuclei were visualized using Hoechst 33258 (Molecular Probes). Fluorescence image was detected using LEICADMRD microscope (Leica).
Exponentially growing HCT 116 colon cancer cells were treated with the GSK3 inhibitor BIO for 24 hours. […] The subcellular distribution of cyclin D1 was visualized under the microscope (FIG. 12, Panel A). […]

Test [4] deals with GSK3α/β. As to the kind of experiment: Phosphorylation-specific blot for GSK3α/β, HCT 116 cells. It counts as cell-based, human. To be noted: BIO 24 hours. The method, then:
FIG. 11 illustrates that ERK/MAPK is identified as the major kinase that is responsible for the stability of cyclin D1 protein. Panels A-F: Pulse-chase analysis of cyclin D1 protein in HCT 116 cells after exposure to the MEK inhibitor U0126 (A-C) or the GSK3 inhibitor BIO (D-F). Exponentially growing HCT 116 cells were treated with either DMSO or 10 μM of U0126 (A-C) for 30 minutes, or DMSO or 5 μM of BIO (D-F) for 24 hours. Panels A and D: Cells were pulse-labeled with ^35S-methionine for 1 hour. Subsequently these cells were chased with cold methionine for the indicated times, and then lysed respectively. Cyclin D1 was immunoprecipitated and then analyzed with SDS-PAGE. Autoradiography was performed. Levels of metabolically labeled-cyclin D1 were estimated by quantitative scanning using the Quantity One (Bio-Rad) software and blotted on the graph to determine the half-life of cyclin D1. Panels B and E: Western blot analysis. The membrane was blotted with a cyclin D1 Thr286 phosphorylation specific (pThr286), total cyclin D1, a phosphorylation specific ERK, and total ERK antibodies (B), or a pThr286, cyclin D1, a GSKα/β phosphorylation specific, and GSK3β antibodies (E). Panels C and F: Cell cycle distributions were shown. […]
In contrast, no effect on phosphorylation status and stability of cyclin D1 protein through inhibition of GSK3α/β (FIG. 14, Panels D-F) were detected. […]

Experimental findings from patent publication US20070026431A1, “Modulation of MAPK-mediated phosphorylation and/or FBXW8-mediated ubiquitinylation of cyclin D1 in modulation of cellular proliferation” (priority 2005, published 2007) are described below.

SMILES strings stand for the structures. “Also recorded” adds a separate entry of the source.

With `O=C1Nc2cc(Br)ccc2/C1=C1/Nc2ccccc2/C1=N\O` [BIO], the “phosphorylation status of cyclin D1 at Thr286 (ΔD mutant)” value in test [1] is “did not show any significant effect; also recorded: minimal effect”; in test [2], “slight change; also recorded: reduction”. The “subcellular localization of cyclin D1” value in test [3] was “no significant difference”. Besides, in test [4], the “phosphorylated forms of GSK3α/β” value is “disappeared”.
